Reference: EP4324461A1, “(E)-N-CINAMOYLAMINOALKANOLES WITH MELANOGENESIS INHIBITORY ACTIVITY” (UNIWERSYTET JAGIELLONSKI, priority 2022, dated 2024)
pIC50: −log10 of the molar value. Read-outs that look alike come from different tables or passages of the source.

Legend:
[1] = Lipophilicity coefficient RM0 by reversed phase thin layer chromatography; type: physicochemical; conditions: RP-18 TLC, methanol / 100 mM phosphate buffer pH = 7.4
Method: Confirmation of the identity and purity of the obtained compounds consisted in the registration and interpretation of ^1H NMR and ^13C NMR spectra (the spectra were recorded using an ECZR 500 MHz (JEOL) series FT-NMR spectrophotometer), as well as the registration and interpretation of LC-MS spectra (the spectra were recorded using Acquita UPLC system (Waters) coupled with a Waters TQD mass spectrometer). The melting point was measured using the open capillary method in the IA9300 device (Electrothermal). The lipophilicity coefficient RM0 was determined by reversed phase thin layer chromatography. In the study, aluminum plates 20x20 cm covered with modified silica gel RP-18 F254 (Merck) were used as the solid phase. The mobile phase consisted of solutions of methanol and 100 mM phosphate buffer (pH = 7.4), characterized by a variable methanol content ranging from 95 to 65% (v/v). The tested compounds were dissolved in methanol to obtain solutions with a concentration of 1 mg/mL. Then, 5 µL of the solutions prepared in this way were transferred to the starting line on aluminum plates, which were then placed in chromatographic chambers previously saturated with mobile phase vapors for at least 1 hour. All activities, including the development of chromatograms, were carried out at room temperature. After developing the chromatograms to approximately 1-2 cm from the end of the plate, the plates were dried and then the distance traveled by the tested compounds was visualized under UV light (λ = 254 nm). The experiment was performed in duplicate for the specified conditions. For all samples, Rf was calculated according to the formula Rf = a/b, where a - the distance traveled by the tested compound, b - the distance traveled by the mobile phase. Then, the RM parameter was calculated for all samples according to the formula RM = log(1/Rf - 1), obtaining a linear relationship between the RM values and the methanol concentration in the mobile phase. The logP coefficient was also calculated using the following computer programs: ACD/ChemSketch 2020.1.2 and ChemDraw 20.0.0.41. Table 2. The physicochemical data of the compounds are presented below

[2] = tested on: tyrosinase from mushroom; test: Inhibition of commercial mushroom tyrosinase (L-DOPA or L-tyrosine substrate); type: biochemical
Method: The following substrates were used for the enzymatic reaction: L-tyrosine and L-3,4-dihyroxyphenylalanine (L-DOPA). Both substrates were used in independent experiments. According to the literature, the use of L-DOPA enables the assessment of tyrosinase diphenolase activity, and L-tyrosine - the tyrosinase monophenolase activity. The determinations were performed in 96-well plates, in each well there was placed: 170 µL or 127.5 µL of 50 mM phosphate buffer (pH = 6.8) with tyrosinase (1U/well or 3U/well) and 10 µL of a solution of the tested compound in DMSO (the final concentration in the well was 500 µM, 250 µM or 125 µM). The negative control used 10 µL of pure solvent (DMSO). To initiate the reaction, an appropriate substrate was added: L-tyrosine (62.5 µL of solution in phosphate buffer) or L-DOPA (20 µL of solution in phosphate buffer). After a 25-minute incubation, the absorbance was measured at 475 nm using a microplate reader. The percentage of inhibition of tyrosinase activity was calculated using the formula: [(AC -AT)/AC] × 100, where AC - is the absorbance of the negative control, AT - is the absorbance of the sample containing the tested compound.

[3] = tested on: B16-F10 murine melanoma cell line; test: Cytotoxicity in B16-F10 cells (MTT); type: cell-based; conditions: 48 h
Method: In order to determine safe doses of compounds for testing the inhibition of melanogenesis in a murine melanoma cell line, cytotoxicity tests were performed. Cytotoxicity was determined by the colorimetric method using MTT ([3-(4,5-dimethyl-2-thiazolyl)-2,5-diphenyl-2H-tetrazolium bromide, Sigma M5655). For this purpose, cells were transferred to 96-well plates in an amount of 5000/well. After 24 h of culture in an incubator in F 10-Ham medium with 1% FBS, the tested compounds at various concentrations were added to the wells together with fresh medium. DMSO was added to the medium in a negative control. The MTT test was performed after further culture for 48 h. Then the medium was removed and the formed formazan crystals were dissolved in DMSO. The absorbance was measured at 570 nm in a plate reader and the result was compared to the control (DMSO), which was 100%. The percentage of viability was calculated using the formula: [AT/AC^∗100], where AT is the absorbance of the test sample, AC - absorbance of the control sample. Table 3. Results of inhibiting the activity of monophenolase […] tyrosinase and cytotoxicity testing in B16F10 cells for the described compounds.

[4] = L-DOPA, read-out: Tyrosinase inhibition with L-DOPA, IC50
[5] = L-tyrosine, read-out: Tyrosinase inhibition with L-tyrosine, IC50

Row | Structure (SMILES) | RM0 [1] | Tyrosinase inhibition with L-DOPA [%] ([2]; L-DOPA) | pIC50 [2, 4] | Tyrosinase inhibition with L-tyrosine [%] ([2]; L-tyrosine) | pIC50 [2, 5] | Tyrosinase inhibition with L-DOPA [%] ([2]; L-DOPA, concentration not given) | Cytotoxicity study in B16F10 cells % viability ([3]; 150 µM) [%] | Cytotoxicity study in B16F10 cells % viability ([3]; 200 µM) [%] | Cytotoxicity study in B16F10 cells % viability ([3]; 250 µM) [%] | Cytotoxicity study in B16F10 cells % viability ([3]; 12.5 µM) [%] | Cytotoxicity study in B16F10 cells % viability ([3]; 25 µM) [%] | Cytotoxicity study in B16F10 cells % viability ([3]; 50 µM) [%]
1 | O=C(/C=C/c1ccc(Cl)cc1)NCCCCO [H-331/21, (2E)-3-(4-chlorophenyl)-N-(4-hydroxybutyl)prop-2-enamide] | 2.14 | 64.31±0.21% (500 µM) | 3.82 | 82.50±0.87% (500 µM) | 3.99 | – | 32.7 | 51.9 | 52.7 | 49.0 | 47.8 | 54.2
2 | O=C(/C=C/c1ccccc1)NCCO [H-429/21, (2E)-N-(2-hydroxyethyl)-3-phenylprop-2-enamide] | 1.27 | 30.54±1.20% (500 µM) | – | 21.00±8.83% (500 µM) | – | – | 86.4 | 79.8 | 80.9 | – | – | –
3 | O=C(/C=C/c1ccc(Cl)cc1Cl)NCCCCO [H-298/20, (2E)-3-(2,4-dichlorophenyl)-N-(4-hydroxybutyl)prop-2-enamide] | 2.78 | 11.16±2.78 (500 µM) % | – | 20±2.96% (500 µM) | – | – | 46.5 | 40.6 | 37.4 | – | – | –
4 | O=C(/C=C/c1ccc(Cl)cc1Cl)NCCCCCO [H-297/20, (2E)-3-(2,4-dichlorophenyl)-N-(5-hydroxypentyl)prop-2-enamide] | 3.08 | 20.53±2.84% (500 µM) | – | 19.09±2.53% (500 µM) | – | – | 102.3 | 73.6 | 88.5 | – | – | –
5 | CCC(CO)NC(=O)/C=C/c1ccc(Cl)cc1Cl (stereo not drawn) [H-285/20, (2E)-3-(2,4-dichlorophenyl)-N-(1-hydroxybutan-2-yl)prop-2-enamide] | 3.08 | 0.21±5.64% (500 µM) | – | 14.56±1.63% (500 µM) | – | – | 84.2 | 74.8 | 24.6 | – | – | –

Continued, in another order:

Row | RM0 [1] | Tyrosinase inhibition with L-DOPA [%] ([2]; L-DOPA) | pIC50 [2, 4] | Tyrosinase inhibition with L-tyrosine [%] ([2]; L-tyrosine) | pIC50 [2, 5] | Tyrosinase inhibition with L-DOPA [%] ([2]; L-DOPA, concentration not given) | Structure (SMILES) | Cytotoxicity study in B16F10 cells % viability ([3]; 150 µM) [%] | Cytotoxicity study in B16F10 cells % viability ([3]; 200 µM) [%] | Cytotoxicity study in B16F10 cells % viability ([3]; 250 µM) [%] | Cytotoxicity study in B16F10 cells % viability ([3]; 12.5 µM) [%] | Cytotoxicity study in B16F10 cells % viability ([3]; 25 µM) [%] | Cytotoxicity study in B16F10 cells % viability ([3]; 50 µM) [%]
6 | 1.60 | 34.55±4.18% (500 µM) | 2.81 | 35.50±1.37% (500 µM) | 2.99 | – | O=C(/C=C/c1ccccc1)NCCCCO [Compound A-43, (2E)-N-(4-hydroxybutyl)-3-phenylprop-2-enamide] | 108.9 | 105.7 | 103.2 | – | – | –
7 | 2.27 | – | 3.35 | 75.14±1.60% (500 µM) | 3.75 | 54.87±1.47 | O=C(/C=C/c1ccc(Cl)cc1)N1CCC(O)CC1 [Compound A-99, (2E)-3-(4-chlorophenyl)-1-(4-hydroxypiperidin-1-yl)prop-2-en-1-one] | 109.8 | 102.6 | 96.6 | – | – | –
